Measurements taken from ChEMBL document CHEMBL1140907, “Derivatives of 5-nitro-furan-2-carboxylic acid carbamoylmethyl ester inhibit RNase H activity associated with HIV-1 reverse transcriptase” (J Med Chem, 2009).
Blank lines part the entries; values can stand above or below the compound they belong to. The source made the active and inactive calls. The rule behind the calls is not given here.

Key:
[1] = molecular target: Human immunodeficiency virus type 1 reverse transcriptase (Human immunodeficiency virus 1) (UniProt Q72547); test: (§1) Inhibition of HIV1 LAI clade B reverse transcriptase RNase H activity by real time monitoring assay
[2] = molecular target: T1, Human immunodeficiency virus type 1 reverse transcriptase (Human immunodeficiency virus 1, UniProt Q72547); test: Inhibition of HIV1 LAI CRF01 A_E s93JP-NH1 reverse transcriptase RNase H activity by real time monitoring assay; set-up: species or system 93JP-NH1
[3] = system: Human immunodeficiency virus 1; test: Inhibition of HIV1 NL4-3 replication in CD4-CXCR4 expressing human NP2 cells assessed as decrease in p24 antigen production after 4 days by ELISA; settings: Human immunodeficiency virus 1, NL4-3, NP2, 96 h
[4] = molecular target: T1, Human immunodeficiency virus type 1 reverse transcriptase; test: Inhibition of HIV1 LAI clade C 93IN101 reverse transcriptase RNase H activity by real time monitoring assay
[5] = Cytotoxicity against IL2 and anti-CD3-stimulated CD4 expressing primary T cells at 25 to 30 uM by MTT assay; type: cell-based; settings: t-cell
[6] = molecular target: Human immunodeficiency virus type 1 integrase (Human immunodeficiency virus 1) (UniProt Q7ZJM1); test: Inhibition of HIV1 integrase by real time monitoring assay
Chain of Human immunodeficiency virus type 1 integrase (Human immunodeficiency virus 1) (Q7ZJM1 as listed by the source): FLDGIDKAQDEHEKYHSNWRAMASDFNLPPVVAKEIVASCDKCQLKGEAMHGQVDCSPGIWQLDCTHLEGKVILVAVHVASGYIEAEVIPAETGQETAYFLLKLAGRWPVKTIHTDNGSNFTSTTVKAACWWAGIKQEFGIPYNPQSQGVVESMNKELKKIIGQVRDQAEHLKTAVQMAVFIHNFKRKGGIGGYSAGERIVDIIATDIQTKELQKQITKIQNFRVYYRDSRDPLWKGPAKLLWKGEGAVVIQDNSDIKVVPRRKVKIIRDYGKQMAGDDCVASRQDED

[7] = system: Human immunodeficiency virus 1; test: Inhibition of HIV1 NL4-3 replication in CD4 expressing human T cells assessed as decrease in p24 antigen production at 25 uM after 4 days by ELISA; type: functional, organism-based; settings: T-cell
[8] = Inhibition of murine leukemia virus reverse transcriptase by real time monitoring assay
Escherichia coli = test: Inhibition of Escherichia coli RNase H by real time monitoring assay
[9] = Cytotoxicity against T cells at >25 uM by MTT assay; type: cell-based; settings: t-cell
[10] = Cytotoxicity against CD4-CXCR4 expressing human NP2 cells at >25 uM by MTT assay; type: cell-based
[11] = molecular target: T1, Human immunodeficiency virus type 1 reverse transcriptase; test: as §1
[12] = molecular target: T2, Ribonuclease H1 (Homo sapiens) (UniProt O60930); test: Inhibition of human RNase H1 by real time monitoring assay
T2 sequence (whole entry): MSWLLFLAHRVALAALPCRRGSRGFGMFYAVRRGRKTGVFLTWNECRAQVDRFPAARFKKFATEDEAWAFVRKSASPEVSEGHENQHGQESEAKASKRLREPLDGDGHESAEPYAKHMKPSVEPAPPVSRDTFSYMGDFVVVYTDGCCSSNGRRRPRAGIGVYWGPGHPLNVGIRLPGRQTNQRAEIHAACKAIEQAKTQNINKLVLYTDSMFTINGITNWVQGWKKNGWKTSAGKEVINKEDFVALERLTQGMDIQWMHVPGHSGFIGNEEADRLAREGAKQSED

Structure (SMILES): CN(C)S(=O)(=O)c1cccc(NC(=O)COC(=O)c2ccc([N+](=O)[O-])o2)c1
Activity [1]: Active

Structure (SMILES): O=C(COC(=O)c1ccc([N+](=O)[O-])o1)Nc1nc2ccccc2s1
Activity [1]: Active

Structure (SMILES): O=C(OCC(=O)N(CC1CCCO1)c1nc(-c2ccc(Br)cc2)cs1)c1ccc([N+](=O)[O-])o1 (centres undefined)
IC50 [2]: 2.6 µM
IC50 [3]: 22.7 µM
IC50 [4]: 32.2 µM
Activity [5]: 50%
Activity [6]: inactive
Activity [7]: Active
IC50 [8]: 8.6 µM
Activity (Escherichia coli): inactive
Activity [9]: 50%
Activity [10]: 50%
IC50 [11]: 26.7 µM

Structure (SMILES): CCOC(=O)c1sc(N(Cc2ccccc2)C(=O)COC(=O)c2ccc([N+](=O)[O-])o2)nc1C
Activity [1]: inactive

Structure (SMILES): CCOc1cc(N2CCOCC2)cc(OCC)c1NC(=O)COC(=O)c1ccc([N+](=O)[O-])o1
Activity [1]: inactive

Structure (SMILES): O=C(COC(=O)c1ccc([N+](=O)[O-])o1)Nc1ncc(C(F)(F)F)cc1Cl
Activity [1]: Active

Structure (SMILES): O=C(COC(=O)c1ccc([N+](=O)[O-])o1)Nc1ccc(F)cc1F
Activity [1]: inactive

Structure (SMILES): CCOC(=O)c1c(NC(=O)COC(=O)c2ccc([N+](=O)[O-])o2)sc(C)c1C
Activity [1]: inactive

Structure (SMILES): CCOC(=O)c1c(-c2cccs2)csc1NC(=O)COC(=O)c1ccc([N+](=O)[O-])o1
Activity [1]: inactive

Structure (SMILES): O=C(COC(=O)c1ccc([N+](=O)[O-])o1)Nc1cc(C(F)(F)F)cc(C(F)(F)F)c1
Activity [1]: Active

Structure (SMILES): Cc1ccc(NC(=O)COC(=O)c2ccc([N+](=O)[O-])o2)cc1
Activity [1]: inactive

Structure (SMILES): O=C(COC(=O)c1cncc(Br)c1)NC12CC3CC(CC(C3)C1)C2
Activity [1]: inactive

Structure (SMILES): O=C(COC(=O)c1ccc([N+](=O)[O-])o1)Nc1ccccc1F
Activity [1]: inactive

Structure (SMILES): O=C(COC(=O)c1ccc([N+](=O)[O-])o1)Nc1ccc(Cl)c(S(=O)(=O)N2CCOCC2)c1
Activity [1]: Active

Second part, led by results:

Activity [1]: inactive
Structure (SMILES): O=C(COC(=O)c1cccnc1Cl)NC12CC3CC(CC(C3)C1)C2

Activity [1]: inactive
Structure (SMILES): O=C(COC(=O)c1ccc[nH]1)NC12CC3CC(CC(C3)C1)C2

Activity [1]: inactive
Structure (SMILES): O=C(COC(=O)c1ccccn1)NC12CC3CC(CC(C3)C1)C2

Activity [1]: Active
Structure (SMILES): Cc1ccc(NC(=O)COC(=O)c2ccc([N+](=O)[O-])o2)cc1S(=O)(=O)N1CCCCCC1

Activity [1]: inactive
Structure (SMILES): O=C1CCC(C(=O)OCC(=O)NC23CC4CC(CC(C4)C2)C3)N1 (centres undefined)

Activity [12]: inactive
IC50 [2]: 3.8 µM
IC50 [4]: 26.5 µM
Activity [6]: inactive
IC50 [8]: 8.4 µM
Activity (Escherichia coli): inactive
IC50 [11]: 29.6 µM
Structure (SMILES): O=C(COC(=O)c1ccc([N+](=O)[O-])o1)NC12CC3CC(CC(C3)C1)C2
Activity [5]: 50%
Activity [9]: 50%
Activity [10]: 50%
